Values after ≈ are worked out from the molar mass of the structure shown. Active and inactive are the calls of the source. No cut-off for these calls is given here.
Assays:
Micrococcus luteus [1] = test: Antibacterial activity against Micrococcus luteus MTCC 2470 after 24 hrs by well diffusion method; assay type: functional
Bacillus subtilis [2] = test: Antibacterial activity against Bacillus subtilis MTCC 121 after 24 hrs by well diffusion method; assay type: functional
Staphylococcus aureus [3] = test: Antibacterial activity against Staphylococcus aureus MLS16 MTCC 2940 after 24 hrs by well diffusion method; assay type: functional
Bacillus subtilis [4] = test: Bactericidal activity against Bacillus subtilis MTCC 121 incubated for 24 hrs followed by transfer of microbial suspension to Mueller Hinton agar plates and measured after 24 hrs post transfer; assay type: functional
Escherichia coli [5] = test: Antibacterial activity against Escherichia coli MTCC 739 after 24 hrs by well diffusion method; assay type: functional
Micrococcus luteus [6] = test: Bactericidal activity against Micrococcus luteus MTCC 2470 incubated for 24 hrs followed by transfer of microbial suspension to Mueller Hinton agar plates and measured after 24 hrs post transfer; assay type: functional
Escherichia coli [7] = test: Bactericidal activity against Escherichia coli MTCC 739 incubated for 24 hrs followed by transfer of microbial suspension to Mueller Hinton agar plates and measured after 24 hrs post transfer; assay type: functional
Pseudomonas aeruginosa [8] = test: Antibiofilm activity against Pseudomonas aeruginosa MTCC 2453 after 24 hrs by crystal violet staining-based assay; assay type: functional, organism-based
Pseudomonas aeruginosa [9] = test: Bactericidal activity against Pseudomonas aeruginosa MTCC 2453 incubated for 24 hrs followed by transfer of microbial suspension to Mueller Hinton agar plates and measured after 24 hrs post transfer; assay type: functional
Bacillus subtilis [10] = test: Antibiofilm activity against Bacillus subtilis MTCC 121 after 24 hrs by crystal violet staining-based assay; assay type: functional, organism-based
Raoultella planticola [11] = test: Antibiofilm activity against Klebsiella planticola MTCC 530 after 24 hrs by crystal violet staining-based assay; assay type: functional, organism-based
Staphylococcus aureus [12] = test: Antibacterial activity against Staphylococcus aureus MTCC 96 after 24 hrs by well diffusion method; assay type: functional
Pseudomonas aeruginosa [13] = test: Antibacterial activity against Pseudomonas aeruginosa MTCC 2453 after 24 hrs by well diffusion method; assay type: functional
Staphylococcus aureus [14] = test: Antibiofilm activity against Staphylococcus aureus MTCC 96 after 24 hrs by crystal violet staining-based assay; assay type: functional, organism-based
Raoultella planticola [15] = test: Bactericidal activity against Klebsiella planticola MTCC 530 incubated for 24 hrs followed by transfer of microbial suspension to Mueller Hinton agar plates and measured after 24 hrs post transfer; assay type: functional
Raoultella planticola [16] = test: Antibacterial activity against Klebsiella planticola MTCC 530 after 24 hrs by well diffusion method; assay type: functional
Staphylococcus aureus [17] = test: Antibiofilm activity against Staphylococcus aureus MLS16 MTCC 2940 after 24 hrs by crystal violet staining-based assay; assay type: functional, organism-based
Staphylococcus aureus [18] = test: Bactericidal activity against Staphylococcus aureus MTCC 96 incubated for 24 hrs followed by transfer of microbial suspension to Mueller Hinton agar plates and measured after 24 hrs post transfer; assay type: functional
Staphylococcus aureus [19] = test: Bactericidal activity against Staphylococcus aureus MLS16 MTCC 2940 incubated for 24 hrs followed by transfer of microbial suspension to Mueller Hinton agar plates and measured after 24 hrs post transfer; assay type: functional
[20] = Klebsiella planticola, MTCC 530, 24 h, read-out: IC50
[21] = Staphylococcus aureus, MTCC 96, 24 h, read-out: IC50

| SMILES | MIC (Micrococcus luteus [1]) | MIC (Bacillus subtilis [2]) | MIC (Staphylococcus aureus [3]) | MBC (Bacillus subtilis [4]) | MIC (Escherichia coli [5]) | MBC (Micrococcus luteus [6]) | MBC (Escherichia coli [7]) | IC50 (Pseudomonas aeruginosa [8]) | MBC (Pseudomonas aeruginosa [9]) | IC50 (Bacillus subtilis [10]) | IC50 (Raoultella planticola [11]; [20]) | MIC (Staphylococcus aureus [12]; MTCC 96, 24 h) | MIC (Pseudomonas aeruginosa [13]) | IC50 (Staphylococcus aureus [14]; [21]) | MBC (Raoultella planticola [15]; MTCC 530, 24 h) | MIC (Raoultella planticola [16]; MTCC 530, 24 h) | IC50 (Staphylococcus aureus [17]) | MBC (Staphylococcus aureus [19]) | MIC (Staphylococcus aureus [12]) | MIC (Raoultella planticola [16]) | other results |
| --- | --- | --- | --- | --- | --- | --- | --- | --- | --- | --- | --- | --- | --- | --- | --- | --- | --- | --- | --- | --- | --- |
| O=C(NCc1ccco1)c1nc(-c2ccccc2)c2c(C(F)(F)F)cc(-c3ccccc3)nc2n1 | inactive | inactive | inactive | inactive | inactive | inactive | inactive | Not Active | inactive | Not Active | 5.4 µg/mL (≈ 11.4 µM) | 7.8 µg/mL (≈ 16.4 µM) | inactive | 2.7 µg/mL (≈ 5.69 µM) | 31.2 µg/mL (≈ 65.8 µM) | 15.6 µg/mL (≈ 32.9 µM) | Not Active | inactive |  |  | MBC (Staphylococcus aureus [18]; MTCC 96, 24 h): 15.6 µg/mL (≈ 32.9 µM) |
| COc1ccc(-c2nc(C(=O)NCc3ccco3)nc3nc(-c4ccccc4)cc(C(F)(F)F)c23)cc1 | inactive | inactive | inactive |  | inactive |  |  |  |  |  |  |  | inactive |  |  |  |  |  | inactive | inactive |  |
| COc1ccc(-c2nc(C(=O)N3CCN(CCO)CC3)nc3nc(-c4ccccc4)cc(C(F)(F)F)c23)cc1 | inactive | inactive | inactive |  | inactive |  |  |  |  |  |  |  | inactive |  |  |  |  |  | inactive | inactive |  |
| COc1ccc(-c2nc(C(=O)N3CCCC3)nc3nc(-c4ccccc4)cc(C(F)(F)F)c23)cc1 | inactive | inactive | inactive | inactive | inactive | inactive | inactive | Not Active | inactive | Not Active | 10.8 µg/mL (≈ 22.6 µM) |  | inactive |  | 15.6 µg/mL (≈ 32.6 µM) | 15.6 µg/mL (≈ 32.6 µM) | Not Active | inactive | inactive |  | IC50 (Staphylococcus aureus [14]): Not Active; MBC (Staphylococcus aureus [18]): inactive |
| COc1ccc(-c2nc(C(=O)NC3CCCCC3)nc3nc(-c4ccccc4)cc(C(F)(F)F)c23)cc1 | inactive | inactive | inactive | inactive | inactive | inactive | inactive | Not Active | inactive | Not Active |  | 7.8 µg/mL (≈ 15.4 µM) | inactive | 2.7 µg/mL (≈ 5.33 µM) |  |  | Not Active | inactive |  | inactive | IC50 (Raoultella planticola [11]): Not Active; MBC (Raoultella planticola [15]): inactive; MBC (Staphylococcus aureus [18]; MTCC 96, 24 h): 7.8 µg/mL (≈ 15.4 µM) |
| CCNC(=O)c1nc(-c2ccccc2)c2c(C(F)(F)F)cc(-c3ccccc3)nc2n1 | inactive | inactive | inactive |  | inactive |  |  |  |  |  |  |  | inactive |  |  | 31.2 µg/mL (≈ 73.9 µM) |  |  | inactive |  |  |

— ChEMBL document CHEMBL4219190, “Studies on synthesis of novel pyrido[2,3-d]pyrimidine derivatives, evaluation of their antimicrobial activity and molecular docking” (Bioorg Med Chem Lett, 2018)
